# Reference: patent US20260226084A1, “DUAL RAF AND TUBULIN INHIBITORS AND METHODS OF USE THEREOF” (Deciphera Pharmaceuticals, LLC, priority 2023, published 2026)
# Read-outs that look alike come from different tables or passages of the source.
# Tests used:
# [1] = system: MiaPaca-2 cells; assay: MiaPaca-2 Cell Proliferation Assay; type: cell-based; settings: Table 2, read-out: Inhibition of cell proliferation in MiaPaca-2 (IC50 class)
# Experimental: Miapaca-2 cells (catalog #CRL-1420) are obtained from the American Type Culture Collect (ATTC, Manassas, VA). Briefly, cells were grown in DMVEM supplemented with 10 characterized fetal bovine serum (Invitrogen, Carlsbad, CA), 2.5% New Zealand sourced horse serum and 1 Penicillin/Streptomycin/L-Glutamine at 37° C., 5 CO2, and 95% humidity. Cells are expanded until reaching 70-95% confluency at which point they are sub-cultured or harvested for assay use. A serial dilution of test compound is dispensed into a 96-well black clear bottom plate in triplicate. Three thousand cells are added per well in 200 μL complete growth medium in the 96-well plate. Plates are incubated for 67 to 72 h at 37° C., 5% CO2, and 95% humidity. At the end of the incubation, 40 μL of a 440 μM solution of resazurin (Sigma, St. Louis, MO) in PBS is added to each well of the plate and plates are incubated for an additional 5 to 6 h at 37° C., 5% CO2, and 95% humidity. Plates are read on a Synergy2 or equivalent reader (Biotek, Winooski VT) using an excitation of 540 nm and an emission of 600 nm. Data is analyzed using Prism software (Graphpad, San Diego, CA) to calculate IC50 values.
# [2] = system: HPAF-II cells; assay: HPAF-II Cell Proliferation Assay; type: cell-based; settings: HPAF-II cells, Table 2, read-out: Inhibition of cell proliferation in HPAF-II (IC50 class)
# Experimental: (§1) HPAF-II cells (catalog #CRL-1997) are obtained from the American Type Culture Collect (ATCC, Manassas, VA). Briefly, cells are grown in Minimum Essential Media supplemented with 10% characterized fetal bovine serum (Invitrogen, Carlsbad, CA) and 1% Penicillin/Streptomycin/L-Glutamine at 37° C., 5% CO2, and 95% humidity. Cells are expanded until reaching 70-95% confluency at which point they are sub-cultured or harvested for assay use. A serial dilution of test compound is dispensed into a 384-well black clear bottom plate in triplicate. 750 cells are added per well in 50 μL complete growth medium in the 384-well plate. Plates are incubated for 115 to 120 hours at 37° C., 5% CO2, and 95% humidity. At the end of the incubation, 40 μL of a 440 μM solution of resazurin (Sigma, St. Louis, MO) in PBS is added to each well of the plate and plates are incubated for an additional 18 to 24 hours at 37° C., 5% CO2, and 95% humidity. Plates are read on a Synergy2 or equivalent reader (Biotek, Winooski, VT) using an excitation of 540 nm and an emission of 600 nm. Data is analyzed using Prism software (Graphpad, San Diego, CA) to calculate IC50 values.
# [3] = molecular target: T1, B-Raf kinase (SEQ ID NO: 1) (Homo sapiens, UniProt P15056); assay: Biochemical Assay for B-Raf (coupled pyruvate kinase/lactate dehydrogenase assay); settings: 1 mM ATP; read-out: BRAF (inhibition of biochemical activity, IC50)
# T1 construct: GST (N); purchased Sigma
# T1 sequence (P15056 416-766): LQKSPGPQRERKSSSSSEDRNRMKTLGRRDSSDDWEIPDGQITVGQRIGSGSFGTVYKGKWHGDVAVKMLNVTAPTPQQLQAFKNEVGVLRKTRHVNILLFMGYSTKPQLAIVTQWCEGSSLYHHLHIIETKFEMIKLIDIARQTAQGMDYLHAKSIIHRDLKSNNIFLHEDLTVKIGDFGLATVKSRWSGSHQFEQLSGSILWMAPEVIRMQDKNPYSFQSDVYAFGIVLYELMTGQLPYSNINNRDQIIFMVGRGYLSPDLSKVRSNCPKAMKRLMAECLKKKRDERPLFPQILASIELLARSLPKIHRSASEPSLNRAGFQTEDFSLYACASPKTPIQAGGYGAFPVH
# [4] = system: HCT-116 cells; assay: HCT-116 Cell Proliferation Assay; type: cell-based; settings: Table 2, read-out: Inhibition of cell proliferation in HCT-116 (IC50 class)
# Experimental: HCT-116 cells (catalog #CCL-247) are obtained from the American Type Culture Collect (ATCC, Manassas, VA). Briefly, cells are grown in McCoy's 5A supplemented with 10% characterized fetal bovine serum (Invitrogen, Carlsbad, CA) and 1% Penicillin/Streptomycin/L-Glutamine at 37° C., 5% CO2, and 95% humidity. Cells are expanded until reaching 70-95% confluency at which point they are subcultured or harvested for assay use. A serial dilution of test compound is dispensed into a 384-well black clear bottom plate in triplicate. 375 cells are added per well in 50 μL complete growth medium in the 384-well plate. Plates are incubated for 67 to 72 hours at 37° C., 5% CO2, and 95% humidity. At the end of the incubation, 40 μL of a […] solution of resazurin (Sigma, St. Louis, MO) in PBS is added to each well of the plate and plates are incubated for an additional 4 to 5 h at 37° C., 5% CO2, and 95% humidity. Plates are read on a Synergy2 or equivalent reader (Biotek, Winooski, VT) using an excitation of 540 nm and an emission of 600 nm. Data is analyzed using Prism software (Graphpad, San Diego, CA) to calculate IC50 values.
# [5] = system: Pa16c cells; assay: Pa16c Cell Proliferation Assay; type: cell-based; settings: Table 2, read-out: Inhibition of cell proliferation in Pa16c (IC50 class)
# Experimental: as §1, with “Pa16c” for “HPAF-II”, “cells” for “cells (catalog #CRL-1997)”, “Dr. Channing Der, University of North Carolina at Chapel Hill.” for “the American Type Culture Collect (ATCC, Manassas, VA).”, “Dulbecco's Modified Eagle Medium” for “Minimum Essential Media”, “67” for “115”, “72 h” for “120 hours”
# [6] = molecular target: T2, C-Raf kinase (SEQ ID NO: 2) (Homo sapiens, UniProt P04049, Y340D/Y341D); assay: Biochemical Assay for C-Raf (coupled pyruvate kinase/lactate dehydrogenase assay); settings: 1 mM ATP; read-out: CRAF (inhibition of biochemical activity, IC50)
# T2 construct: C-Raf residues 306-end; Y340D, Y341D with; GST (N); purchased Sigma
# T2 sequence (P04049 307-648 Y340D/Y341D): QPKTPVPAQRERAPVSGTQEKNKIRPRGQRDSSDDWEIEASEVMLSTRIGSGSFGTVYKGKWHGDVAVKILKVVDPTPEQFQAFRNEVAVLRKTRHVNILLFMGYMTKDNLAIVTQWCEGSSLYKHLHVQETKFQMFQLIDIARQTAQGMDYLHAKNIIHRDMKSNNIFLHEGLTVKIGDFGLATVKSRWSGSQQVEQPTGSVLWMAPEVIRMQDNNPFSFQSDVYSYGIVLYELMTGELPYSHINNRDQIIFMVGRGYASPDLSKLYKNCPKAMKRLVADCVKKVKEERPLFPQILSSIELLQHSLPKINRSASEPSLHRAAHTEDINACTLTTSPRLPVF
# [7] = Homo sapiens, MIA PaCa-2, MiaPaca-2 cells
# [8] = Homo sapiens, HCT-116, HCT-116 cells
Compound,"IC50 [1, 7] [µM]",IC50 [3] [µM],"IC50 [4, 8] [µM]",IC50 [6] [µM],"IC50 ([2]; Homo sapiens, HPAF-II) [µM]",IC50 [5] [µM],IC50 ([1]; MiaPaca-2 cells) [µM],IC50 [2] [µM],IC50 ([4]; HCT-116 cells) [µM]
Cc1ccc(NC(=O)c2cc(C(F)(F)F)cnn2)cc1-c1ccnc(-c2cscn2)c1 [Example 142],0.5 to 1,0.5 to 1,0.1 to 0.5,0.5 to 1,0.1 to 0.5,0.1 to 0.5,,,
Cc1ccc(NC(=O)c2cc(C(F)(F)F)cnn2)cc1-c1ccnc(-c2cnn(C)n2)c1 [Example 139],0.1 to 0.5,0.1 to 0.5,0.1 to 0.5,< 0.1,0.1 to 0.5,0.5 to 1,,,
Cc1ccc(NC(=O)c2cc(C(C)(F)F)cnn2)cc1-c1ccnc(-c2cscn2)c1 [Example 143],0.1 to 0.5,1 to 10,0.1 to 0.5,1 to 10,0.1 to 0.5,1 to 10,,,
Cc1ccc(NC(=O)c2ccc(C(F)(F)F)nn2)cc1-c1ccnc(-c2ccnc(NC(=O)C3CC3)c2)c1 [Example 19],0.1 to 0.5,0.1 to 0.5,0.1 to 0.5,< 0.1,0.1 to 0.5,< 0.1,,,
Cc1ccc(NC(=O)c2cc(C(C)(F)F)cnn2)cc1-c1ccnc(-c2cnn(C)n2)c1 [Example 140],0.1 to 0.5,0.1 to 0.5,0.1 to 0.5,< 0.1,0.5 to 1,1 to 10,,,
Cc1ccc(NC(=O)c2cc(C(F)(F)F)cnn2)cc1-c1cc(N[C@H](C)CO)nc(-c2c(C)n[nH]c2C)c1 [Example 122],0.1 to 0.5,0.1 to 0.5,0.1 to 0.5,< 0.1,0.5 to 1,0.1 to 0.5,,,
Cc1ccc(NC(=O)c2ccc(C(F)(F)F)nc2)cc1-c1ccnc(-c2ccnc(NC(=O)C3CC3)c2)c1 [Example 79],,< 0.1,,< 0.1,,0.1 to 0.5,0.1 to 0.5,0.1 to 0.5,0.1 to 0.5
Cc1ccc(NC(=O)c2cc(C(F)(F)F)cnn2)cc1-c1ccnc(-c2ccsc2)c1 [Example 146],< 0.1,1 to 10,< 0.1,1 to 10,< 0.1,< 0.1,,,
Cc1ccc(NC(=O)c2cc(C(F)(F)F)cnn2)cc1-c1ccnc(-c2ccnc(NC(=O)CC3(C)CC3)c2)c1 [Example 90],0.1 to 0.5,0.1 to 0.5,0.1 to 0.5,0.1 to 0.5,0.1 to 0.5,1 to 10,,,
COC(=O)Nc1cc(-c2cncc(-c3cc(NC(=O)c4ccc(C(F)(F)F)nc4)ccc3C)c2)ncn1 [Example 76],,< 0.1,,< 0.1,,1 to 10,1 to 10,1 to 10,1 to 10

# Further lines, with some results ahead:
"IC50 [1, 7] [µM]",IC50 [3] [µM],"IC50 [4, 8] [µM]",IC50 [6] [µM],Compound,"IC50 ([2]; Homo sapiens, HPAF-II) [µM]",IC50 [5] [µM],IC50 ([1]; MiaPaca-2 cells) [µM],IC50 [2] [µM],IC50 ([4]; HCT-116 cells) [µM]
0.1 to 0.5,< 0.1,0.1 to 0.5,< 0.1,Cc1ccc(NC(=O)c2cc(C(C)(F)F)cnn2)cc1-c1ccnc(-c2cncn2C)c1 [Example 138],0.1 to 0.5,0.1 to 0.5,,,
0.1 to 0.5,< 0.1,0.1 to 0.5,< 0.1,CNCC(=O)Nc1cc(-c2cc(-c3cc(NC(=O)c4cc(C5CC5)cnn4)ccc3C)ccn2)ccn1 [Example 107],0.1 to 0.5,0.1 to 0.5,,,
0.1 to 0.5,< 0.1,0.1 to 0.5,< 0.1,Cc1ccc(NC(=O)c2cc(C(F)(F)F)cnn2)cc1-c1cc(N[C@H](C)CO)cc(-c2cc(NC(=O)C3CC3)ncn2)c1 [Example 123],0.1 to 0.5,< 0.1,,,
0.5 to 1,< 0.1,0.5 to 1,< 0.1,Cc1ccc(NC(=O)c2cc(C(F)(F)F)cnn2)cc1-c1cncc(-c2cc(NC(=O)C(F)(F)F)ncn2)c1 [Example 125],0.5 to 1,0.5 to 1,,,
< 0.1,< 0.1,0.1 to 0.5,< 0.1,Cc1ccc(NC(=O)c2cc(C(F)(F)F)cnn2)cc1-c1cc(N[C@H](C)CO)nc(-c2cn[nH]c2C)c1 [Example 120],0.1 to 0.5,0.1 to 0.5,,,
0.5 to 1,< 0.1,0.1 to 0.5,< 0.1,Cc1ccc(NC(=O)c2cc(C(F)(F)F)cnn2)cc1-c1cccc(-c2cc(NC(=O)C3CC3)ncn2)c1 [Example 11],0.5 to 1,1 to 10,,,
0.5 to 1,< 0.1,< 0.1,< 0.1,Cc1ccc(NC(=O)c2cc(C(C)C)cnn2)cc1-c1cncc(-c2ccnc(NC(=O)C3CC3)c2)c1 [Example 55],0.1 to 0.5,1 to 10,,,
0.1 to 0.5,< 0.1,0.1 to 0.5,< 0.1,Cc1ccc(NC(=O)c2cc(C(F)(F)F)cnn2)cc1-c1ccnc(-c2cncn2C)c1 [Example 135],0.1 to 0.5,0.1 to 0.5,,,
0.5 to 1,< 0.1,0.1 to 0.5,< 0.1,Cc1ccc(NC(=O)c2cc(C(C)C)cnn2)cc1-c1cncc(-c2cc(NC(=O)C3CC3)ncn2)c1 [Example 64],0.1 to 0.5,0.1 to 0.5,,,
0.5 to 1,< 0.1,0.1 to 0.5,< 0.1,Cc1ccc(NC(=O)c2cc(C3CC3)cnn2)cc1-c1cc(OCCO)nc(-c2ccnc(NC(=O)C3CC3)c2)c1 [Example 104],0.1 to 0.5,0.1 to 0.5,,,
1 to 10,< 0.1,1 to 10,< 0.1,Cc1cc(-c2cc(NC(=O)c3cc(C(F)(F)F)cnn3)cnc2C)cc(-c2ccnc(NC(=O)C3CC3)c2)n1 [Example 35],1 to 10,1 to 10,,,
